According to patent US8592403B2, “Diazepine and diazocane compounds as MC4 agonists” (Pfizer Limited, priority 2008, dated 2013):

Key:
[1] = target: T1, MC4 receptor (MC4R) (Homo sapiens, UniProt P32245); assay: Nle4, D-Phe7-α-MSH inhibition at the MC4 receptor (competition binding, SPA, CHO-CRE MC4R membranes)
T1 construct: expressed in transfected cells; host or cells: CHO-CRE MC4R cells (membranes)
Outline: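 Competition binding by SPA used CHO-CRE MC4R membranes on WGA beads (0.15 ug membrane/well) with 0.06 nM [125I] Nle4, D-Phe7-α-MSH and 11 half-log competitor concentrations in duplicate. Buffer was 25 mM HEPES pH 7 with MgCl2, CaCl2, Pluronic F68 and protease inhibitors; incubation was 12 hours at room temperature. Non-specific binding was set with 100 nM SHU9119, and Ki was calculated.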

[2] = target: T2, CYP3A4 (Homo sapiens, UniProt P08684); assay: High density DDI 3 μM cocktail screen in human liver microsomes, midazolam probe; type: in vitro ADME; details: human, liver microsomes, probe midazolam, read-out: % inhibition 3A4 @ 3 μM
T2 construct: utilizes human liver microsomes together with isoform-specific clinical drug probes; from tissue; host or cells: human liver microsomes
T2 sequence (P08684 whole entry, canonical isoform): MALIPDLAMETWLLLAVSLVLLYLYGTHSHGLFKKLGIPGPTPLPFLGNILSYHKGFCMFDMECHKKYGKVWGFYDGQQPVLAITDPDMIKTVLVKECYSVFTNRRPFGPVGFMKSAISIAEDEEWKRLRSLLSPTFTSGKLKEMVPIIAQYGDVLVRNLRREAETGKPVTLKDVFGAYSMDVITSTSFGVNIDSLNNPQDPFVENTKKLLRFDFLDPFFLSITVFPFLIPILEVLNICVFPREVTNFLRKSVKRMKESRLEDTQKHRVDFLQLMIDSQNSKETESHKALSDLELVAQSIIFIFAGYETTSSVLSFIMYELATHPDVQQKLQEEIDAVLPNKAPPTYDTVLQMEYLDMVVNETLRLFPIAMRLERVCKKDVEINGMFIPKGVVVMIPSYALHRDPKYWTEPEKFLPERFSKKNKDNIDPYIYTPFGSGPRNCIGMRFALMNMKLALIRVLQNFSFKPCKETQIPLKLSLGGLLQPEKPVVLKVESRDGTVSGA
Outline: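 Pooled human liver microsomes incubated with isoform-specific clinical probe substrates as a cocktail (midazolam for CYP3A4), with or without test compound at 3 μM. Metabolite formation followed over time by LC-MS/MS. Inhibition expressed as a single-point percentage.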

[3] = target: T3, MC3 receptor (MC3R) (Homo sapiens, UniProt P41968); assay: Nle4, D-Phe7-α-MSH inhibition at the MC3 receptor (competition binding, SPA, CHO-CRE MC3R membranes)
T3 construct: expressed in transfected cells; host or cells: CHO-CRE MC3R cells (membranes)
T3 sequence (P41968 whole entry): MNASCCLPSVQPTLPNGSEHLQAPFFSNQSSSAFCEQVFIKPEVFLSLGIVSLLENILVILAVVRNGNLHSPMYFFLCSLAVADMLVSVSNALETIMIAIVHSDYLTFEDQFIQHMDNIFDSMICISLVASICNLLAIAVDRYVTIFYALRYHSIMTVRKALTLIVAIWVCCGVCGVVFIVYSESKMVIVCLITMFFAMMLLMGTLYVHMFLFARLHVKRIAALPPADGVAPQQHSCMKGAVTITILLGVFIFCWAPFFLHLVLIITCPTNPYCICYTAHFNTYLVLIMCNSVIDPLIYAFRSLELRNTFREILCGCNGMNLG
Outline: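 Competition binding by SPA used CHO-CRE MC3R membranes on WGA beads with 0.06 nM [125I]Nle4,D-Phe7-α-MSH and 11 half-log competitor concentrations. Buffer was 25 mM HEPES, MgCl2, CaCl2, 1% Pluronic F68, pH7, incubated 12 h at room temperature. Non-specific binding was defined with 100 nM SHU9119, and Ki values were derived.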

T1 sequence (P32245 whole entry): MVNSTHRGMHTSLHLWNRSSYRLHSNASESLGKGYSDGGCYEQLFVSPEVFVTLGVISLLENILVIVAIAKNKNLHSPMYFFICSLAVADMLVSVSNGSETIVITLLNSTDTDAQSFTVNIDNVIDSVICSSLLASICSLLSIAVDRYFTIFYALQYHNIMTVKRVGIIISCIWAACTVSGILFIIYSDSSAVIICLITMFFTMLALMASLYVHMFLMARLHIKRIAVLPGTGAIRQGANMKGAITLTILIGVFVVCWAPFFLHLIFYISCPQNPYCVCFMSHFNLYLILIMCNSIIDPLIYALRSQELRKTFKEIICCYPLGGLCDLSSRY

Row | Structure (SMILES) | Ki [1] | inhibition at 3 µM [2] | Ki [3]
1 | COc1ccc([C@@H]2CN(c3ccc(C#N)nn3)C[C@H]2C(=O)N2CCC[C@@H](c3ccc(Cl)cc3)N(C(C)=O)CC2)c(F)c1 [Example 67] | 0.0589 µM | 29.5% | 0.162 µM
2 | CC(=O)N1CCN(C(=O)[C@@H]2CN(c3ccc4nncn4n3)C[C@H]2c2ccc(Cl)cn2)CCC[C@H]1c1ccc(Cl)cc1 [Example 6, 6-[(3S,4S)-3-{[4-acetyl-5S-(4-chlorophenyl)-1,4-diazocan-1-yl]carbonyl}-4-(5-chloropyridin-2-yl)pyrrolidin-1-yl][1,2,4]triazolo[4,3-b]pyridazine] | 0.0284 µM | 54.2% | 0.0895 µM
3 | COc1ccc([C@@H]2CN(C(C)(C)C)C[C@H]2C(=O)N2CCC[C@@H](c3ccc(Cl)cc3)N(C(C)=O)CC2)c(F)c1 [Example 70] | 0.686 µM | 36% | 5.88 µM
4 | CC(C)C(=O)N1CCN(C(=O)[C@@H]2CN(C(C)(C)C)C[C@H]2c2ccc(F)cc2F)CCC[C@H]1c1ccc(Cl)cc1 [Example 11] | 0.2 µM | 53.5% | 4.09 µM
5 | COc1ccc([C@@H]2CN(c3ccc(=O)[nH]n3)C[C@H]2C(=O)N2CCC[C@@H](c3ccc(Cl)cc3)N(C(C)=O)CC2)c(F)c1 [Example 68, 6-[(3S,4R)-3-{[4-acetyl-5S-(4-chlorophenyl)-1,4-diazocan-1-yl]carbonyl}-4-(2-fluoro-4-methoxyphenyl)pyrrolidin-1-yl]pyridazin-3(2H)-one] | 0.0217 µM | 29.5% | 0.308 µM
6 | CC(C)(C)C(=O)N1CCN(C(=O)[C@@H]2CN(C(C)(C)C)C[C@H]2c2ccc(F)cc2F)CCC[C@H]1c1ccc(Cl)cc1 [Example 15] | 0.144 µM | 64.4% | 3.38 µM
7 | CS(=O)(=O)N1CCN(C(=O)C2CN(c3ccc(=O)[nH]n3)CC2c2ccc(F)cc2F)CCCC1c1ccc(F)cc1 (stereo not drawn) [Example 78] | 0.303 µM | 49% | 3.22 µM
8 | CC(C)(C)N1C[C@@H](C(=O)N2CCC[C@@H](c3ccc(Cl)cc3)N(C(=O)C3CCC3)CC2)[C@H](c2ccc(F)cc2F)C1 [Example 14] | 0.378 µM | 56.1% | 4.06 µM
9 | COC(=O)N1CCN(C(=O)[C@@H]2CN(C(C)(C)C)C[C@H]2c2ccc(OC)cc2F)CCCC1c1ccc(Cl)cc1 (stereo partly drawn) [Example 91] | 0.383 µM | 33% | 4.3 µM
10 | CC(=O)N1CCN(C(=O)[C@@H]2CN(c3ccc(C#N)nn3)C[C@H]2c2ccc(Cl)cn2)CCC[C@H]1c1ccc(Cl)cc1 [Example 72] | 0.0714 µM | 20.4% | 0.141 µM
11 | CCCC(=O)N1CCN(C(=O)[C@@H]2CN(c3cccnn3)C[C@H]2c2ccc(F)cc2F)CCCC1c1ccccc1 (mixture of isomers) [Example 101] | 0.0779 µM | 83% | 0.715 µM
12 | CCC(=O)N1CCN(C(=O)[C@@H]2CN(C(C)(C)C)C[C@H]2c2ccc(F)cc2F)CCC[C@H]1c1ccc(Cl)cc1 [Example 10] | 0.3 µM | 37.1% | 6.59 µM
13 | CS(=O)(=O)N1CCN(C(=O)[C@@H]2CN(c3ccc(=O)[nH]n3)C[C@H]2c2ccc(F)cc2F)CCCC1c1ccc(Cl)cc1 (mixture of isomers) [Example 79] | 0.107 µM | 51% | 1.11 µM
14 | CNC(=O)N1CCN(C(=O)[C@@H]2CN(c3cccnn3)C[C@H]2c2ccc(F)cc2F)CCCC1c1ccccc1 (mixture of isomers) [Example 73] | 0.225 µM | 88% | 0.981 µM
15 | COC(=O)N1CCN(C(=O)[C@@H]2CN(c3ccc(=O)n(C)n3)C[C@H]2c2ccc(OC)cc2F)CCC[C@H]1c1ccc(Cl)cc1 [Example 118] | 0.0247 µM | 48% | 0.178 µM
16 | CS(=O)(=O)N1CCN(C(=O)[C@@H]2CN(c3ccc(C#N)nn3)C[C@H]2c2ccc(F)cc2F)CCCC1c1ccc(Cl)cc1 (mixture of isomers) [Example 76] | 0.344 µM | 33.5% | 0.96 µM
17 | COC(=O)N1CCN(C(=O)[C@@H]2CN(c3ccc(=O)n(C)n3)C[C@H]2c2ccc(F)cc2F)CCC[C@H]1c1ccc(Cl)cc1 [Example 66, methyl (8S-4-chlorophenyl)-4-{[(3S,4R)-4-(2,4-difluorophenyl)-1-(1-methyl-6-oxo-1,6-dihydropyridazin-3-yl)pyrrolidin-3-yl]carbonyl}-1,4-diazocane-1-carboxylate] | 0.0711 µM | 54.2% | 0.187 µM
18 | COC(=O)N1CCN(C(=O)[C@@H]2CN(c3ccc(=O)n(C)n3)C[C@H]2c2ccc(OC)cc2F)CCC[C@@H]1c1ccc(Cl)cc1 [Example 119, methyl 8R-(4-chlorophenyl)-4-{[(3S,4R)-4-(2-fluoro-4-methoxyphenyl)-1-(1-methyl-6-oxo-1,6-dihydropyridazin-3-yl)pyrrolidin-3-yl]carbonyl}-1,4-diazocane-1-carboxylate] | 0.0223 µM | 54.5% | 0.9 µM
19 | COC(=O)N1CCN(C(=O)[C@@H]2CN(c3ccc(=O)n(C)n3)C[C@H]2c2ccc(F)cc2F)CCC[C@@H]1c1ccc(Cl)cc1 [Example 56] | 0.0711 µM | 54.2% | 0.187 µM
20 | CC(C)C(=O)N1CCN(C(=O)[C@@H]2CN(C(C)(C)C)C[C@H]2c2ccc(Cl)cn2)CCC[C@H]1c1ccc(Cl)cc1 [Example 20, 1-{[(3S,4S)-1-tert-butyl-4-(5-chloropyridin-2-yl)pyrrolidin-3-yl]carbonyl}-5S-(4-chlorophenyl)-4-isobutyryl-1,4-diazocane] | 0.0686 µM | 50.2% | 0.386 µM
21 | COc1ccc([C@@H]2CN(c3ccc(=O)n(C)n3)C[C@H]2C(=O)N2CCCC(c3ccc(Cl)cc3)N(S(C)(=O)=O)CC2)c(F)c1 (single isomer, unassigned) [Example 117] | 0.0336 µM | 44.5% | 1.15 µM
22 | COC(=O)N1CCN(C(=O)[C@@H]2CN(c3ccc(=O)[nH]n3)C[C@H]2c2ccc(OC)cc2F)CCC[C@@H]1c1ccc(Cl)cc1 [Example 90, methyl 8R-(4-chlorophenyl)-4-{[(3S,4R)-4-(2-fluoro-4-methoxyphenyl)-1-(6-oxo-1,6-dihydropyridazin-3-yl)pyrrolidin-3-yl]carbonyl}-1,4-diazocane-1-carboxylate] | 0.012 µM | 53.8% | 0.23 µM
23 | CC(=O)N1CCN(C(=O)[C@@H]2CN(c3cccnn3)C[C@H]2c2ccc(F)cc2F)CCCC1c1ccccc1 (mixture of isomers) [Example 103] | 0.316 µM | 53.8% | 1.54 µM
